Reference: article PMC8698721, “Exploration of the Structure–Function Relationships of a Novel Frog Skin Secretion-Derived Bioactive Peptide, t-DPH1, through Use of Rational Design, Cationicity Enhancement and In Vitro Studies” (Antibiotics, 2021)
In brackets after ≈: the same amount, converted by molar mass. Where a SMILES comes first, the peptide text is derived from it.

Legend:
[1] = test system: S. aureus (ATCC 6538); assay type: cell-based, Staphylococcus aureus; conditions: ATCC 6538, 24 h
Protocol: (§1) To assess the antimicrobial activity of t-DPH1 and its designed analogues, MIC and MBC assays were conducted. Seven microorganism strains were used in the assay: Gram-positive bacteria S. aureus (ATCC 6538), E. faecalis (NCTC 12697) and MRSA (NCTC 12493); Gram-negative bacteria E. coli (ATCC 8739), P. aeruginosa (ATCC 9027) and K. pneumoniae (ATCC 43816); yeast, C. albicans (ATCC 10231).
(§2) For MIC assay, the microorganisms were initially incubated in Mueller-Hinton broth (MHB) (for bacteria) or yeast extract peptone dextrose broth (YPD-B) (for yeast) overnight and sub-cultured to achieve their respective logarithmic growth phases (5 × 10^5 CFU/mL). Then, 99 μL of each microorganism and 1 μL of the tested peptide solution were incubated in a 96-well plate. The final on-plate peptide concentrations were from 1 to 512 μM. Except for the peptide group, four other groups were set when conducting this experiment, including a negative control group (PBS), a vehicle control group (1% DMSO), a positive control group (bacteria: 20 μg/mL norfloxacin; yeast: amphotericin B) and a blank control group (MHB or YPD-B with no microorganism culture). Thus, the MIC value represents the lowest concentration of peptides at which no visible growth of the microorganism after 24 h incubation. For the MBC assay, 10 μL of the medium from each clear well was inoculated onto a Mueller–Hinton agar (MHA) (for bacteria) or yeast extract peptone dextrose agar (YPD-A) (for yeast) plate and incubated for 24 h for measurement MBC values.

[2] = test system: Enterococcus faecalis (E. faecalis) (NCTC 12697); assay type: cell-based; conditions: NCTC 12697, 24 h
Protocol: as §1, §2

[3] = test system: Methicillin-resistant Staphylococcus aureus (MRSA) (NCTC 12493); assay type: cell-based; conditions: NCTC 12493, 24 h
Protocol: as §1, §2

[4] = test system: E. coli (ATCC 8739); assay type: cell-based, Escherichia coli; conditions: ATCC 8739, 24 h
Protocol: as §1, §2

[5] = test system: K. pneumoniae (ATCC 43816); assay type: cell-based, Klebsiella pneumoniae; conditions: ATCC 43816, 24 h
Protocol: as §1, §2

[6] = test system: P. aeruginosa (ATCC 9027); assay type: cell-based, Pseudomonas aeruginosa; conditions: ATCC 9027, 24 h
Protocol: as §1, §2

[7] = test system: C. albicans (ATCC 10231); assay type: cell-based, Candida albicans; conditions: ATCC 10231, 24 h
Protocol: as §1, §2

[8] = test system: HMEC-1 (human microvascular endothelial cell line); assay type: cell-based; conditions: 24 h
Protocol: (§3) The MTT assay was conducted to verify the proliferation inhibitory effect of t-DPH1 and its analogues. Human cancer cell lines (NCI-H838 (ATCC® CRL-5844, human non-small cell lung cancer)), (NCI-H157(ATCC® CRL-5802, human non-small cell lung cancer cell line)), (U251MG (ECACC 09063001, human neuronal glioblastoma cancer cell line)), (PC-3 (ATCC® CRL-1435TM, human prostate carcinoma cancer cell line)) and normal human cell lines (HMEC-1(ATCC®-CRL-3243, human microvascular endothelial cell line)) and (HaCaT (ATCC®-PCS-200-011, human keratinocyte cell)) were purchased from the American Type Culture Collection (ATCC, Manassas, VA, USA) and the European Collection of Cell Cultures (ECACC, Sallisbury, UK) for this assay. For the MTT assay, 8000 cells/per well were seeded in the 96-well plate for 24 h. Subsequently, experiment groups were dosed with fresh serum-free medium containing different concentrations of peptides (100 μM to 10 nM) in 3 replicates. Negative control groups and positive control groups were dosed with the fresh serum-free medium containing equal amounts of PBS, and 0.1% (w/v) Triton X-100, respectively. Then the 96-well plate was incubated at 37 °C with 5% CO2 for 24 h. After, ten microliters of MTT solution (5 mg/mL) (Sigma-Aldrich UK Ltd., Gillingham, UK) were added to each well and incubated in a dark environment for two hours. Then, the solution in each well was removed and 100 μL of DMSO were added and then the plate was shaken for 10 min on a shaking incubator before detecting the OD value by use of a Synergy HT plate reader (BioTek, Minneapolis, MN, USA) at λ = 570 nm.

[9] = test system: HaCaT (human keratinocyte cell); assay type: cell-based; conditions: 24 h
Protocol: as §3

[10] = test system: NCI-H157 (human non-small cell lung cancer cell line); assay type: cell-based; conditions: 24 h
Protocol: as §3

[11] = test system: NCI-H838 (human non-small cell lung cancer); assay type: cell-based; conditions: 24 h
Protocol: as §3

[12] = test system: PC-3 (human prostate carcinoma cancer cell line); assay type: cell-based; conditions: 24 h
Protocol: as §3

[13] = test system: U251MG (human neuronal glioblastoma cancer cell line); assay type: cell-based; conditions: 24 h
Protocol: as §3

[14] = test system: horse red blood cells; assay type: cell-based; conditions: for HC50: red cells of horse
Protocol: The haemolysis assay was performed by mixing 2% (v/v) fresh defibrinated horse blood (TCS Biosciences Ltd., Buckingham, UK) with peptides in different concentrations. Before the test, horse blood was rinsed with PBS three to four times until the supernatant was clear. Next, peptide solutions (from 100 μM to 1 nM) were incubated with the suspension of red blood cells at 37 °C for two hours. The blood cells treated with 1% Triton-X 100 were used as the positive control, and the blood cells treated with PBS were used as the negative control. After incubation, 100 μL of the supernatant from each sample were transferred to a new 96-well plate, and the OD value of each well was measured with a Synergy HT plate reader (BioTek, Minneapolis, MN, USA) with the absorbance set to 570 nm.

[15] = test system: PC-3, H838, H157 and U251MG cancer cell lines; assay type: cell-based, human; conditions: 24 h
Protocol: as §3, with “Then the 96-well plate was incubated at 37 °C with 5% CO2 for 24 h. After, ten microliters of MTT solution (5 mg/mL) (Sigma-Aldrich UK Ltd., Gillingham, UK) were added to each well and incubated in a dark environment for two hours.” left out

What does the source list for `CC[C@H](C)[C@H](NC(=O)[C@H](CCCCN)NC(=O)[C@H](CCCCN)NC(=O)[C@H](Cc1c[nH]c2ccccc12)NC(=O)[C@H](CC(C)C)NC(=O)CN)C(=O)N[C@@H](CCCCN)C(=O)N[C@@H](CC(N)=O)C(=O)N[C@H](C(=O)N[C@@H](C)C(=O)N[C@@H](C)C(=O)N[C@@H](C)C(=O)N[C@@H](C)C(=O)NCC(=O)N[C@@H](CCCCN)C(=O)N[C@@H](C)C(=O)N[C@@H](C)C(=O)N[C@@H](CC(C)C)C(=O)NCC(=O)N[C@@H](C)C(=O)N[C@@H](CC(C)C)C(N)=O)C(C)C` [t-DPH1-K4] (H-GLWKKIKNVAAAAGKAALGAL-NH2)?
MBC [1]: 4 µM (≈ 8.2 µg/mL); MIC [1]: 2 µM (≈ 4.1 µg/mL); MBC [2]: 32 µM (≈ 65.6 µg/mL); MIC [2]: 32 µM (≈ 65.6 µg/mL); MBC [3]: 4 µM (≈ 8.2 µg/mL); MIC [3]: 2 µM (≈ 4.1 µg/mL); MBC [4]: 2 µM (≈ 4.1 µg/mL); MIC [4]: 1 µM (≈ 2.05 µg/mL); MBC [5]: 4 µM (≈ 8.2 µg/mL); MIC [5]: 2 µM (≈ 4.1 µg/mL); MBC [6]: 16 µM (≈ 32.8 µg/mL); MIC [6]: 8 µM (≈ 16.4 µg/mL); MBC [7]: 64 µM (≈ 131 µg/mL); MIC [7]: 32 µM (≈ 65.6 µg/mL); IC50 against HMEC-1 [8]: 46.02 µM; IC50 against HaCaT [9]: 63.37 µM; IC50 [10]: 6.14 µM; IC50 [11]: 10.1 µM; IC50 [12]: 19 µM; IC50 [13]: 32.2 µM; HC50 [14]: 444.8 µM

How did the MBC [1] turn out when `CC[C@H](C)[C@H](NC(=O)[C@H](CCCCN)NC(=O)[C@H](CO)NC(=O)[C@H](Cc1c[nH]c2ccccc12)NC(=O)[C@H](CC(C)C)NC(=O)CN)C(=O)N[C@@H](CCCCN)C(=O)N[C@@H](CC(N)=O)C(=O)N[C@H](C(=O)N[C@@H](C)C(=O)N[C@@H](C)C(=O)N[C@@H](C)C(=O)N[C@@H](C)C(=O)NCC(=O)N[C@@H](CCCCN)C(=O)N[C@@H](C)C(=O)N[C@@H](C)C(=O)N[C@@H](CC(C)C)C(=O)NCC(=O)N[C@@H](C)C(=O)N[C@@H](CC(C)C)C(N)=O)C(C)C` [t-DPH1] (H-GLWSKIKNVAAAAGKAALGAL-NH2) was run?
The MBC was 16 µM (≈ 32.2 µg/mL).

And the MIC [1]?
The MIC was 8 µM (≈ 16.1 µg/mL).

And the MBC [2]?
Its MBC is 256 µM (≈ 514 µg/mL).

What about the MIC [2] of the same compound?
Its MIC is 128 µM (≈ 257 µg/mL).

And the MBC [3]?
The MBC was 32 µM (≈ 64.3 µg/mL).

And the MIC [3]?
Its MIC is 16 µM (≈ 32.2 µg/mL).

What about the MBC [4] of the same compound?
The MBC was 4 µM (≈ 8.04 µg/mL).

And the MIC [4]?
Its MIC is 2 µM (≈ 4.02 µg/mL).

And the MBC [5]?
The MBC was 16 µM (≈ 32.2 µg/mL).

What about the MIC [5] of the same compound?
Its MIC is 8 µM (≈ 16.1 µg/mL).

What about the MBC [6] of the same compound?
Its MBC is 32 µM (≈ 64.3 µg/mL).

And the MIC [6]?
Its MIC is 16 µM (≈ 32.2 µg/mL).

What about the MBC [7] of the same compound?
Its MBC is 128 µM (≈ 257 µg/mL).

And the MIC [7]?
The MIC was 64 µM (≈ 129 µg/mL).

And the “IC50 against HMEC-1” value [8]?
The value was 29.85 µM.

And the “IC50 against HaCaT” value [9]?
Its value is 175.6 µM.

And the IC50 [10]?
The IC50 was 10.2 µM.

What about the IC50 [11] of the same compound?
The IC50 was 23.5 µM.

And the IC50 [12]?
The IC50 was 14.7 µM.

And the IC50 [13]?
The IC50 was 34.2 µM.

And the haemolysis ([14]; 100 µM)?
Its haemolysis is “over 50%”.

And the HC50 [14]?
Its HC50 is 106.4 µM.

And the IC50 [15]?
The IC50 was 10.2 to 34.2 µM.
